# According to US10662225B2, “Backbone cyclized inhibitory peptides of myeloid differentiation factor 88 (MyD88)” (Yissum Research Development Company of the Hebrew …, priority 2016, dated 2020):
# Numbered stars: 1 amine (or outer) side, 2 acyl side, 3 side chain; on linkers, the order of the positions; unused ones are H or OH. Bridge positions count the residues as written; N and C are the ends. Square brackets hold non-standard residues; d marks the D form. Peptide text beside a SMILES is read from it. CO = O=C([*:1])[*:2]; Nlys = NCCCCNCC(=O)O
# Experiments:
# NFkB activation = assay: NFkB-luciferase reporter in RAW 264.7 macrophages stimulated with LPS; type: cell-based, mouse; settings: RAW 264.7 NFkB-luc, 4 hours
# Method: FIG. 13. 4×4MyDI and Myr4×4MyDI block NFkB induction in response to LPS stimulation of RAW 264.7 NFkB-luc cells. RAW 264.7 murine macrophages were transfected with an NFkB-luciferase reporter gene and stimulated with LPS in the absence or presence of increasing concentrations of the inhibitors. After 4 hours cells were lysed and luminescence was recorded using a Tecan plate reader. BG denotes background.
# In this assay the mouse macrophage RAW264.7 cell line is transfected with an NFkB-luciferase reporter construct and then cells are stimulated by exposure to bacterial LPS and light emission is measured after addition of luciferase substrate.
# [1] = test system: NFκB p65 nuclear translocation; assay: NFκB p65 nuclear translocation in HeLa cells stimulated with TNFα or IL-1β; type: cell-based
# Method: FIG. 6. HeLa assay showing specificity of MyD88 inhibition. HeLa cells were stimulated with recombinant TNFα or IL-1β and NFkB localization was determined with anti-p65 conjugated to rhodamine. The percent of cells with nuclear localization was determined and is shown in the bar graphs on the right. 6A: Top row, HeLa cells transduced with control shRNA. Second row, shRNA knock-down of MyD88. 6B: Top row, HeLa cells treated with MyD88 inhibitor linear peptide. Bottom row, HeLa cells treated with scrambled control version of the MyD88 inhibitor linear peptide (SEQ ID NO: 5).
# FIG. 7. HeLa assay showing specificity of MyD88 inhibition by 4×4MyDI. HeLa cells were stimulated with recombinant TNFα or IL-1b and NFkB localization was determined with anti-p65 conjugated to rhodamine. The percent of cells with nuclear localization was determined, and is shown in the bar graphs on the right. Top row, HeLa cells with no pre-treatment. Second row, HeLa cells pre-treated for 30 min with the backbone cyclic 4×4MyDI compound.
# Lead compounds were further tested in vitro to confirm the specificity of the inhibition. A fluorescence-based in vitro activity assay that determines the degree of activation of the transcription factor NFκB was established. In this assay, cells are treated with either TNFα or IL-1b, both inflammatory cytokines that activate NFκB. Upon activation, the p65 unit of the NFκB transcription factor re-locates from the cytoplasm to the nucleus. Using fluorescently-tagged antibodies to p65, the cytoplasmic vs. nuclear localization of the factor is determined. Importantly, since the signaling of IL-1b, but not TNFα, is dependent on MyD88, this assay can establish the specificity of the inhibition achieved using the lead compounds.
# Cells were activated with either IL-1β (the signaling of the IL-1 receptor is dependent on MyD88), or with TNFα (signaling of its receptor is independent of MyD88). The activation was measured by the translocation of NFκB from the cytoplasm to the nucleus. As a positive control, a stable MyD88 knock-down cell line was established using lentiviral encoded shRNA.
# Using the same system, when cells were treated with the backbone cyclic peptide 4×4MyDI, activation by IL-1β was blocked, however when treated with TNFα the activation was not inhibited.
# MyD88 TIR domain = target: T1, MyD88 TIR domain (Homo sapiens, UniProt Q99836); assay: Competition assay: binding of biotinylated linear BB loop peptide to MyD88 TIR domain; settings: different concentrations
# T1 construct: made in house
# T1 sequence (Q99836 151-296): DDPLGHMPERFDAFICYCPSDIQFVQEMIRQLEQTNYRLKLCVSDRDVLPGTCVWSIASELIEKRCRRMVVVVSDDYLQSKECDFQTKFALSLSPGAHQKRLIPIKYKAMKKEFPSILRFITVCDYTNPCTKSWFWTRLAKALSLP
# Method: FIG. 9. 4×4MyDI binds to the BB loop region of the MyD88 TIR domain. A 96 well plate was coated with recombinant MyD88 (8 μg/ml) in coating buffer vs. buffer alone, and wells were blocked with 1% BSA. Biotinylated linear peptide was added to all wells (125 μg/ml) followed by streptavidin-HRP and substrate. The signal of linear peptide bound to its target was inhibited by incubation with the 4×4MyDI (*P<0.05) but not by incubation with the scrambled version of the linear peptide (SEQ ID NO: 5).
# The ability of the 4×4MyDI compound to bind to the target region (the BB loop) of the MyD88 TIR domain, was evaluated using a newly-designed assay. For this goal a competition assay was established that tests the ability of the 4×4MyDI compound to prevent the binding of the biotinylated linear BB loop peptide to the MyD88 TIR domain. The MyD88 TIR domain was produced as a recombinant protein fused to the SUMO3 protein (Accession # NP_008867), purified, and attached to a 96 well plate. Binding of biotinylated RDVLPGT (SEQ. ID NO: 1) peptide was detected using streptavidin conjugated to horse radish peroxidase (HRP) followed by the addition of HRP substrate.
# [2] = Metabolic stability in plasma (quantitative HPLC); type: in vitro ADME, human
# Method: (§1) FIGS. 17A and 17B. 4×4MyDI is metabolically stable in comparison to the linear MyDI peptide. 4×4MyDI vs. linear MyDI heptapeptide were incubated independently in either human plasma […] or human plasma supplemented with Brush Border Membrane Vesicles (BBMV, 18B). At various time points the solution was sampled and the amount of remaining compound was determined by quantitative HPLC.
# (§2) Peptide backbone cyclization confers metabolic stability on peptides that are inherently susceptible to degradation by proteases. […] The stability of the compounds was then tested in plasma enriched with Brush Border Membrane Vesicles (BBMV). This system models the degradative conditions of the intestine.
# [3] = Metabolic stability in plasma with Brush Border Membrane Vesicles (BBMV); type: in vitro ADME; settings: human; over two hours; read-out: decrease of amount in plasma enriched with BBMV
# Method: as §1, §2
# Method for CaCO-2 monolayer: Transport studies are performed through the CaCO-2 monolayer (passage range of 52-60) seeded at density of 25×10^5 cells/cm^2 on untreated culture inserts of polycarbonate membrane with 0.4 μm pores and surface of 1.1 cm^2. The culture inserets containing Caco-2 monolayers were place in 24 transwell plates 12 mm, Costar™. The cells were monitored for their transepithelial electrical resistance (TEER) measurements to assure TEER between 300 and 500 Ω*cm^2. […] HBSS supplemented with 10 mM MES and adjusted to pH 6.5 will be used as transport medium in the donor compartment and pH 7.4 in the acceptor compartment. The donor solution contains the test compound.
# The investigation of the permeability of 4×4MyDI through CaCO-2 monolayer includes using two main control groups, Atenolol and Metoprolol that show passive para-cellular and trans-cellular permeability, respectively. The CaCO-2 model allows investigating the mechanism of absorption, so the permeability from apical to basolateral membranes (AB) can be measured to evaluate the total permeability. The permeability from basolateral to apical membranes (BA) can also be measured and compared to AB P apparent (Papp) to determine if the absorption is though passive diffusion, active transporters or if there is involvement of efflux systems.
smiles,measurement,setting,value
CC(C)C[C@@H]1NC(=O)[C@H](C(C)C)NC(=O)[C@H](CC(=O)O)NC(=O)[C@H](CCCNC(=N)N)NC(=O)CN(C(=O)[C@@H](N)Cc2c[nH]c3ccccc23)CCCCNC(=O)NCCCCN(CC(=O)NCC(=O)N[C@H](C(N)=O)[C@@H](C)O)C1=O [4×4MyDI] (H-W[Nlys]RDVL[Nlys]GT-NH2; linker 2-7 via CO; N-terminus assumed),block of NFkB activation,NFkB activation,block NFkB activation in a dose dependent manner
same,NFκB activation by IL-1β,"[1]; HeLa cells, IL-1β",blocked
same,"Percent p65 nuclear translocation, IL-1β","[1]; HeLa cells, IL-1β (MyD88 dependent)",27%
same,NFκB activation by TNFα,"[1]; HeLa cells, TNFα",not inhibited
same,"Percent p65 nuclear translocation, TNFα","[1]; HeLa cells, TNFα (MyD88 independent)",97%
same,"Percent p65 nuclear translocation, No stimulation","[1]; HeLa cells, no stimulation",0%
same,specificity of MyD88 inhibition,[1]; IL-1β versus TNFα,specific inhibitor
same,inhibition of binding of the biotinylated peptide to the MyD88 TIR domain,MyD88 TIR domain,competitively inhibited
same,metabolised at 4 h,"[2]; human, human plasma, over the following two hours (hours 2-4), read-out: decrease of amount in plasma",20%
same,stability in plasma,"[2]; plasma, 4×4MyDI: first two hours",completely stable
same,Papp AB (apical to basolateral),CaCO-2 monolayer,higher than metoprolol
same,metabolised at 2 h,[3],40%
